PubChem BioAssay AID330 (DTP/NCI, 2004)
Values joined by “and” are separate entries in the source; they are usually repeats but may differ in a detail not shown here. Equal values may be shown once. Inconclusive results and toxic doses are left out.

Test system: P388 leukemia ip, CD2F1 mice, survival T/C
Test: NCI In Vivo Anticancer Drug Screen. Data for tumor model P388 Leukemia (intraperitoneal) in CD2F1 (CDF1) mice
Conditions: endpoint: median survival time, higher = longer survival
Summary of the method: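 Mice carrying the transplanted tumor received test compound or vehicle. Survival was recorded in each group, and the value is the treated-group measurement divided by that of the vehicle-treated control group.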

[1] = dose: 60.0 mg/kg/injection, schedule: Q01DX005 (ip), vehicle: Klucel (hydroxypropylcellulose) (HPC)
[2] = dose: 120.0 mg/kg/injection, schedule: Q01DX005 (ip), vehicle: Klucel (hydroxypropylcellulose) (HPC)
[3] = dose: 240.0 mg/kg/injection, schedule: Q01DX005 (ip), vehicle: Klucel (hydroxypropylcellulose) (HPC)
[4] = dose: 25.0 mg/kg/injection, schedule: Q04DX003 (ip), vehicle: saline with Tween-80
[5] = dose: 50.0 mg/kg/injection, schedule: Q04DX003 (ip), vehicle: saline with Tween-80
[6] = dose: 100.0 mg/kg/injection, schedule: Q04DX003 (ip), vehicle: saline with Tween-80
[7] = dose: 200.0 mg/kg/injection, schedule: Q04DX003 (ip), vehicle: saline with Tween-80
[8] = dose: 100.0 mg/kg/injection, schedule: Q01DX009 (ip), vehicle: saline
[9] = dose: 200.0 mg/kg/injection, schedule: Q01DX009 (ip), vehicle: saline
[10] = dose: 60.0 mg/kg/injection, schedule: Q01DX005 (ip), vehicle: saline with Tween-80
[11] = dose: 120.0 mg/kg/injection, schedule: Q01DX005 (ip), vehicle: saline with Tween-80
[12] = dose: 240.0 mg/kg/injection, schedule: Q01DX005 (ip), vehicle: saline with Tween-80
[13] = dose: 12.5 mg/kg/injection, schedule: Q01DX009 (ip), vehicle: saline
[14] = dose: 25.0 mg/kg/injection, schedule: Q01DX009 (ip), vehicle: saline
[15] = dose: 50.0 mg/kg/injection, schedule: Q01DX009 (ip), vehicle: saline
[16] = dose: 12.5 mg/kg/injection, schedule: Q01DX009 (ip), vehicle: saline with Tween-80
[17] = dose: 50.0 mg/kg/injection, schedule: Q01DX009 (ip), vehicle: saline with Tween-80

## S=C(NCc1ccccc1)N1CCC(CCCC2CCN(C(=S)NCc3ccccc3)CC2)CC1
[1]
  T/C: 92 % of control
[2]
  T/C: 91 % of control
[3]
  T/C: 88 % of control

## NC(N)=NC(N)=Nc1ccc(-c2ccc(N=C(N)N=C(N)N)cc2)cc1
dose: 3.13 mg/kg/injection, schedule: Q01DX009 (ip), vehicle: saline with Tween-80
  T/C: 108 % of control
dose: 6.25 mg/kg/injection, schedule: Q01DX009 (ip), vehicle: saline with Tween-80
  T/C: 106 % of control

## CCCCCCCCCCCC1C=CCC1 (stereo not drawn)
dose: 100.0 mg/kg/injection, schedule: Q01DX001 (ip), vehicle: saline
  T/C: 99 % of control
dose: 200.0 mg/kg/injection, schedule: Q01DX001 (ip), vehicle: saline
  T/C: 100 % of control
dose: 400.0 mg/kg/injection, schedule: Q01DX001 (ip), vehicle: saline
  T/C: 100 % of control

## O=C(Nc1ccc(Cl)cc1C(=O)c1ccccn1)c1ccccc1
dose: 12.5 mg/kg/injection, schedule: Q04DX003 (ip), vehicle: saline with Tween-80
  T/C: 107 % of control
[4]
  T/C: 93 % of control
[5]
  T/C: 108 % of control
[6]
  T/C: 94 % of control
[7]
  T/C: 97 % of control

## COc1cc(C2N3CCCN2CC3)cc(OC)c1OC (stereo not drawn)
[8]
  T/C: 101 % of control
[9]
  T/C: 102 % of control

## NS(=O)(=O)c1cc2c(cc1Cl)NC(CCC(=O)O)=NS2(=O)=O
dose: 12.5 mg/kg/injection, schedule: Q01DX009 (ip), vehicle: distilled water + Tween-80
  T/C: 93 % of control
dose: 25.0 mg/kg/injection, schedule: Q01DX009 (ip), vehicle: distilled water + Tween-80
  T/C: 102 % of control
dose: 25.0 mg/kg/injection, schedule: Q01DX009 (ip), vehicle: other
  T/C: 92 % of control
dose: 50.0 mg/kg/injection, schedule: Q01DX009 (ip), vehicle: distilled water + Tween-80
  T/C: 98 % of control
dose: 50.0 mg/kg/injection, schedule: Q01DX009 (ip), vehicle: other
  T/C: 90 % of control
dose: 100.0 mg/kg/injection, schedule: Q01DX009 (ip), vehicle: distilled water + Tween-80
  T/C: 102 % of control
dose: 100.0 mg/kg/injection, schedule: Q01DX009 (ip), vehicle: other
  T/C: 90 % of control
dose: 200.0 mg/kg/injection, schedule: Q01DX009 (ip), vehicle: distilled water + Tween-80
  T/C: 102 % of control
dose: 400.0 mg/kg/injection, schedule: Q01DX009 (ip), vehicle: distilled water + Tween-80
  T/C: 98 % of control
dose: 400.0 mg/kg/injection, schedule: Q01DX009 (ip), vehicle: other
  T/C: 97 % of control

## O=C1C(C2CCCCC2)=C2OCC3COC2(O3)c2ccccc21 (stereo not drawn)
[10]
  T/C: 102 % of control
[11]
  T/C: 105 % of control
[12]
  T/C: 102 % of control

## COc1cc2c(cc1OC)-c1c(C)c3ccc(OC)c(NCCN)c3c[n+]1CC2
dose: 6.25 mg/kg/injection, schedule: Q04DX003 (ip), vehicle: water
  T/C: 110 % of control
dose: 12.5 mg/kg/injection, schedule: Q04DX003 (ip), vehicle: water
  T/C: 91 % of control
dose: 25.0 mg/kg/injection, schedule: Q04DX003 (ip), vehicle: water
  T/C: 101 % of control

## CC1=C(C)C(=O)OC(C(C)(O)C2(O)CC=C3C4CC(O)C5(O)C(O)C=CC(=O)C5(C)C4CCC32C)C1 (stereo not drawn)
dose: 7.75 mg/kg/injection, schedule: Q01DX005 (ip), vehicle: Klucel (hydroxypropylcellulose) (HPC)
  T/C: 105 % of control
dose: 15.5 mg/kg/injection, schedule: Q01DX005 (ip), vehicle: Klucel (hydroxypropylcellulose) (HPC)
  T/C: 105 % of control
dose: 31.0 mg/kg/injection, schedule: Q01DX005 (ip), vehicle: Klucel (hydroxypropylcellulose) (HPC)
  T/C: 106 % of control

## O=C(O)C[n+]1ccccc1
dose: 6.25 mg/kg/injection, schedule: Q01DX009 (ip), vehicle: saline
  T/C: 103 % of control
[13]
  T/C: 101 % of control and 94 % of control
[14]
  T/C: 105 % of control
[15]
  T/C: 101 % of control
[8]
  T/C: 97 % of control

## C[CH2][Sn]1([CH2]C)[O]OC(c2ccccc2)[O]1 (stereo not drawn)
dose: 1.56 mg/kg/injection, schedule: Q01DX009 (ip), vehicle: saline with Tween-80
  T/C: 155 % of control
[16]
  T/C: 173 % of control

## CCOC(=O)/C=C1\CCCn2c1ncc(C(=O)OCC)c2=O
[1]
  T/C: 101 % of control
[2]
  T/C: 100 % of control
[3]
  T/C: 108 % of control

## C[n+]1ccccc1C(=O)O
[14]
  T/C: 102 % of control
[15]
  T/C: 98 % of control
[8]
  T/C: 103 % of control
[9]
  T/C: 92 % of control

## O=C(O)C1C[n+]2ccccc2O1 (stereo not drawn)
[13]
  T/C: 100 % of control
dose: 12.5 mg/kg/injection, schedule: Q04DX003 (ip), vehicle: saline
  T/C: 91 % of control
[14]
  T/C: 100 % of control
dose: 25.0 mg/kg/injection, schedule: Q04DX003 (ip), vehicle: saline
  T/C: 100 % of control
[15]
  T/C: 109 % of control
dose: 50.0 mg/kg/injection, schedule: Q04DX003 (ip), vehicle: saline
  T/C: 95 % of control

## NC(=S)n1nc(-c2ccccc2)c(N=Nc2ccc([N+](=O)[O-])cc2)c1-c1ccccc1
dose: 25.0 mg/kg/injection, schedule: Q04DX002 (ip), vehicle: saline with Tween-80
  T/C: 100 % of control
dose: 50.0 mg/kg/injection, schedule: Q04DX002 (ip), vehicle: saline with Tween-80
  T/C: 97 % of control
dose: 100.0 mg/kg/injection, schedule: Q04DX002 (ip), vehicle: saline with Tween-80
  T/C: 87 % of control and 88 % of control
dose: 400.0 mg/kg/injection, schedule: Q04DX002 (ip), vehicle: saline with Tween-80
  T/C: 92 % of control

## CN(C)c1ccc(N=Nc2ccccc2)cc1
dose: 31.25 mg/kg/injection, schedule: Q01DX009 (ip), vehicle: saline with Tween-80
  T/C: 100 % of control
dose: 62.5 mg/kg/injection, schedule: Q01DX009 (ip), vehicle: saline with Tween-80
  T/C: 109 % of control

## CN(C)C(=S)N1C(=O)C2C3CCC(O3)C2C1=O (stereo not drawn)
dose: 1.87 mg/kg/injection, schedule: Q01DX005 (ip), vehicle: saline with Tween-80
  T/C: 102 % of control
dose: 3.75 mg/kg/injection, schedule: Q01DX005 (ip), vehicle: saline with Tween-80
  T/C: 100 % of control
dose: 7.5 mg/kg/injection, schedule: Q01DX005 (ip), vehicle: saline with Tween-80
  T/C: 99 % of control and 98 % of control

## C(=C\c1nc2ccccc2s1)/c1ccc2c(c1)OCO2
[17]
  T/C: 90 % of control
dose: 100.0 mg/kg/injection, schedule: Q01DX009 (ip), vehicle: saline with Tween-80
  T/C: 90 % of control
dose: 200.0 mg/kg/injection, schedule: Q01DX009 (ip), vehicle: saline with Tween-80
  T/C: 100 % of control

## C=CN1C(=O)NC2(CCCCC2)C1=O
[4]
  T/C: 100 % of control
[5]
  T/C: 100 % of control
[6]
  T/C: 90 % of control

## C[CH](C)[GeH]([CH](C)C)[CH](C)C
[15]
  T/C: 91 % of control
[8]
  T/C: 91 % of control

## C=C(C)c1nc(N)nc(Nc2ccccc2)n1
dose: 50.0 mg/kg/injection, schedule: Q01DX005 (ip), vehicle: Klucel (hydroxypropylcellulose) (HPC)
  T/C: 103 % of control
dose: 100.0 mg/kg/injection, schedule: Q01DX005 (ip), vehicle: Klucel (hydroxypropylcellulose) (HPC)
  T/C: 111 % of control
dose: 200.0 mg/kg/injection, schedule: Q01DX005 (ip), vehicle: Klucel (hydroxypropylcellulose) (HPC)
  T/C: 106 % of control

## N#C/C(=C\c1ccco1)C(=O)c1ccco1
[16]
  T/C: 112 % of control
dose: 25.0 mg/kg/injection, schedule: Q01DX009 (ip), vehicle: saline with Tween-80
  T/C: 95 % of control
[17]
  T/C: 89 % of control and 97 % of control

## CC(=O)NS(=O)(=O)c1ccc(N=NC2C(=O)N(C(=O)c3cccnc3)N=C2C)cc1 (stereo not drawn)
[6]
  T/C: 101 % of control
[7]
  T/C: 104 % of control
dose: 400.0 mg/kg/injection, schedule: Q04DX003 (ip), vehicle: saline with Tween-80
  T/C: 109 % of control

## CCN(CC)CCNCc1cc(Cl)c2cccnc2c1O
[15]
  T/C: 93 % of control
[8]
  T/C: 106 % of control

## COc1ccc(N2C(=O)C(C)SC23C(=O)Nc2ccc(C)cc23)cc1 (stereo not drawn)
[10]
  T/C: 109 % of control
[11]
  T/C: 102 % of control
[12]
  T/C: 119 % of control

## CNC(C)C(O)c1ccccc1 (stereo not drawn)
[5]
  T/C: 95 % of control
[6]
  T/C: 95 % of control
[7]
  T/C: 100 % of control
